Data on eleven compounds can be found in ChEMBL document CHEMBL1201862, “PubChem BioAssay data set” (2004).

Some test systems named below: HCT-15; CAKI-1; OVCAR-4; U-251; OVCAR-5; K562; SR; A549; UACC-257; Hs-578T; T47D; NCI/ADR-RES; SNB-19; NCI-H522; LOX IMVI; EKVX; MOLT-4; TK-10; HT-29.
Assay in all cases: DTP human tumour cell line panel, 48 h

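Growth conditions: 96-well plates. Treatment: test compound, 48 hours, 5 concentrations. Analysis: linear interpolation between bracketing concentrations; unreached endpoints set to highest concentration. The concentration for 50% growth inhibition is given as GI50.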 Calls of active or inactive are those of the source. Cut-off read from the data, not from the text of the source: active = GI50 up to about 1.1 µM and inactive = higher. Bounds are passed on as bounds.

With `N#CC(NC12CC3CC(CC(C3)C1)C2)c1ccc2c(c1)OCO2` (centres undefined), the 50% growth inhibitory concentration (GI50) is above 100 µM with HCT-15; > 100 µM (inactive) in the assay with CAKI-1; > 100 µM (inactive) with OVCAR-4; > 100 µM (inactive) in the assay on U-251; > 100 µM (inactive) with OVCAR-5; > 100 µM (inactive) in the assay on K562. Besides, the GI50 with SR, in the assay on A549, in the assay on UACC-257, in the assay on Hs-578T, in the assay with T47D and in the assay with NCI/ADR-RES was > 100 µM (inactive) each time. The GI50 in the assay on SNB-19, with NCI-H522, with LOX IMVI, in the assay with EKVX, in the assay on MOLT-4 and in the assay on TK-10 was > 100 µM (inactive) each time. Besides, in the assay with HT-29, the GI50 was > 100 µM (inactive).
As for `CCCCCCCCCC[C@@H](O)[C@H]1CC[C@H]([C@H]2CC[C@H]([C@H](O)CCCCCCCCCC[C@@H]3CC(CC(C)=O)C(=O)O3)O2)O1` (some centres undefined), the 50% growth inhibitory concentration (GI50) with HCT-15 was 28.3 µM; in the assay with CAKI-1, > 47.1 µM (inactive); in the assay on OVCAR-4 it was 28.7 µM (inactive); with U-251, > 50 µM (inactive); in the assay on OVCAR-5, > 50 µM (inactive); in the assay on K562, 0.374 µM (active). Further, the GI50 with SR was 0.562 µM (active); in the assay on A549 it was 9.93 µM (inactive); with UACC-257, 0.914 µM (active); in the assay with Hs-578T it was 7.19 µM (inactive); in the assay with T47D, > 17.2 µM (inactive); with NCI/ADR-RES, 4.69 µM (inactive). Besides, the GI50 in the assay with SNB-19 was > 47.3 µM (inactive); in the assay on NCI-H522, 7.87 µM (inactive); with LOX IMVI it was 1.12 µM (inactive); in the assay on EKVX it was 7.43 µM (inactive); with MOLT-4, 3.77 µM (inactive); in the assay on TK-10 it was > 39.4 µM (inactive). The GI50 in the assay with HT-29 is 4.41 µM (inactive).
For `c1cc(C[S+]2CCCC2)sc1C[S+]1CCCC1`, the GI50 was above 100 µM in the assay with HCT-15; > 100 µM (inactive) with CAKI-1; > 100 µM (inactive) in the assay with OVCAR-4; > 100 µM (inactive) with U-251; > 100 µM (inactive) in the assay on OVCAR-5; > 100 µM (inactive) in the assay with K562. In addition, the GI50 in the assay with SR, with A549, in the assay on UACC-257, in the assay with Hs-578T, in the assay with T47D and in the assay on NCI/ADR-RES was > 100 µM (inactive) each time. The GI50 in the assay on SNB-19, in the assay with NCI-H522, in the assay on LOX IMVI, in the assay with EKVX, in the assay with MOLT-4 and in the assay on TK-10 was > 100 µM (inactive) each time. For the same compound, the GI50 in the assay on HT-29 was > 100 µM (inactive).
As for `COc1cc(NS(C)(=O)=O)ccc1NCc1c[nH]c2ccc3nc(C)ccc3c12`, the GI50 in the assay on HCT-15 is 37.9 µM; in the assay with CAKI-1, 20.1 µM (inactive); with OVCAR-4, 44.3 µM (inactive); in the assay with U-251 it was 77.6 µM (inactive); in the assay on OVCAR-5, 39.5 µM (inactive); with K562 it was 0.594 µM (active). For the same compound, the GI50 was 4.89 µM (inactive) in the assay with SR; > 100 µM (inactive) with A549; 47.8 µM (inactive) with UACC-257; 72.1 µM (inactive) with Hs-578T; 24.2 µM (inactive) with T47D; > 100 µM (inactive) with NCI/ADR-RES. For the same compound, the GI50 in the assay on SNB-19 is 77.8 µM (inactive); in the assay on NCI-H522, 28.4 µM (inactive); with LOX IMVI, 49.5 µM (inactive); in the assay on EKVX, > 100 µM (inactive); with MOLT-4, 2.9 µM (inactive); with TK-10, 38.7 µM (inactive). Also, the GI50 in the assay with HT-29 was 49.5 µM (inactive).
Turning to `Nc1[nH]c(Nc2ccc(Cl)c(Cl)c2)nc2ncnc1-2`, the GI50 in the assay on HCT-15 was 15.3 µM; in the assay on CAKI-1 it was 10.8 µM (inactive); in the assay with OVCAR-4, 20.3 µM (inactive); with U-251 it was 15.2 µM (inactive); with OVCAR-5, 25.5 µM (inactive); in the assay with K562, 16.1 µM (inactive). Moreover, the GI50 in the assay with SR is 11 µM (inactive); in the assay on A549 it was 13.9 µM (inactive); with UACC-257 it was 17.5 µM (inactive); in the assay with Hs-578T, 5.87 µM (inactive); with T47D, 8.55 µM (inactive); with NCI/ADR-RES, 15.9 µM (inactive). For the same compound, the GI50 is 14.1 µM (inactive) with SNB-19; 15.3 µM (inactive) with NCI-H522; 14.8 µM (inactive) with LOX IMVI; 1.98 µM (inactive) in the assay on EKVX; 11.7 µM (inactive) in the assay with MOLT-4; 13.2 µM (inactive) with TK-10. Moreover, in the assay on HT-29, the GI50 was 14.7 µM (inactive).
Take `C=C1CC(Cn2cc(C)c(=O)[nH]c2=O)(c2ccc(Cl)cc2)OC1=O` (centres undefined): the concentration for 50% growth inhibition (GI50) is 0.867 µM in the assay with HCT-15; 1.83 µM (inactive) in the assay with CAKI-1; 1.72 µM (inactive) in the assay on OVCAR-4; 16.2 µM (inactive) in the assay with U-251; 14.9 µM (inactive) in the assay with OVCAR-5; 0.673 µM (active) with K562. For the same compound, the GI50 is 1.17 µM (inactive) in the assay on SR; 16.6 µM (inactive) with A549; 1.4 µM (inactive) in the assay on UACC-257; 6.58 µM (inactive) in the assay with Hs-578T; 2.08 µM (inactive) with T47D; 3.98 µM (inactive) in the assay with NCI/ADR-RES. Besides, the GI50 is 23.1 µM (inactive) in the assay on SNB-19; 0.594 µM (active) in the assay on NCI-H522; 1.56 µM (inactive) in the assay on LOX IMVI; 11.9 µM (inactive) in the assay on EKVX; 0.94 µM (active) in the assay on MOLT-4; 1.68 µM (inactive) in the assay on TK-10. In addition, the GI50 in the assay with HT-29 is 1.69 µM (inactive).
In the case of `Cc1ccc2c(ccc3[nH]cc(CNc4ccc(NS(C)(=O)=O)cc4)c32)n1`, the concentration for 50% growth inhibition (GI50) in the assay on HCT-15 was 38.5 µM; in the assay with CAKI-1, 14 µM (inactive); in the assay with OVCAR-4, 21.7 µM (inactive); with U-251, 25.9 µM (inactive); in the assay with OVCAR-5, 23.8 µM (inactive); in the assay on K562, 18.7 µM (inactive). The GI50 in the assay with SR is 21.8 µM (inactive); in the assay with A549, 23.1 µM (inactive); in the assay with UACC-257, 19.1 µM (inactive); in the assay with Hs-578T, 27.4 µM (inactive); in the assay with T47D, 12.3 µM (inactive); with NCI/ADR-RES, 81.7 µM (inactive). Moreover, the GI50 is 36.4 µM (inactive) with SNB-19; 14.9 µM (inactive) in the assay on NCI-H522; 20.6 µM (inactive) in the assay with LOX IMVI; 35.4 µM (inactive) in the assay on EKVX; 18.6 µM (inactive) in the assay with MOLT-4; 37.7 µM (inactive) in the assay with TK-10. Moreover, the GI50 in the assay with HT-29 is 28.3 µM (inactive).
Turning to `O=C1c2ccccc2C(=O)c2c(NC(=O)C(Cl)CCl)cccc21` (centres undefined), the GI50 is 6.65 µM in the assay on HCT-15; 16.3 µM (inactive) with CAKI-1; 10.7 µM (inactive) with OVCAR-4; 3.33 µM (inactive) with U-251; 15.6 µM (inactive) with OVCAR-5; 0.197 µM (active) in the assay with K562. Moreover, the 50% growth inhibitory concentration (GI50) is < 0.01 µM (active) with SR; 20.4 µM (inactive) in the assay with A549; 14.7 µM (inactive) with UACC-257; 31.3 µM (inactive) in the assay on Hs-578T; 2.75 µM (inactive) in the assay on T47D; 23.1 µM (inactive) in the assay on NCI/ADR-RES. For the same compound, the GI50 in the assay with SNB-19 was 15.2 µM (inactive); with NCI-H522, 2.16 µM (inactive); in the assay on LOX IMVI, 2.44 µM (inactive); in the assay with EKVX, 19.4 µM (inactive); in the assay on MOLT-4, < 0.0353 µM (active); in the assay with TK-10 it was 4.37 µM (inactive). In addition, the GI50 in the assay with HT-29 was 3.05 µM (inactive).
Regarding `CC(C)(C)c1cc(C(C)(C)C)c(P=C(Cl)Cl)c(C(C)(C)C)c1` (centres undefined), the GI50 was above 100 µM in the assay with HCT-15; > 100 µM (inactive) with CAKI-1; > 100 µM (inactive) in the assay on OVCAR-4; > 100 µM (inactive) in the assay on U-251; > 100 µM (inactive) with OVCAR-5; 0.0478 µM (active) in the assay with K562. The GI50 in the assay with SR, with A549, in the assay with UACC-257, with Hs-578T, with T47D and in the assay with NCI/ADR-RES was > 100 µM (inactive) each time. For the same compound, the GI50 in the assay on SNB-19, with NCI-H522, in the assay on LOX IMVI, in the assay with EKVX, with MOLT-4 and with TK-10 was > 100 µM (inactive) each time. Also, the GI50 in the assay with HT-29 was > 100 µM (inactive).
In the case of `CNC(=S)N/N=C/c1ccc([N+](=O)[O-])s1`, the GI50 with HCT-15 is above 10 µM; with CAKI-1 it was > 10 µM (inactive); with OVCAR-4, > 10 µM (inactive); with U-251, > 10 µM (inactive); in the assay on OVCAR-5 it was > 10 µM (inactive); in the assay with K562 it was > 10 µM (inactive). Moreover, the GI50 is 4.81 µM (inactive) in the assay on SR; 7.38 µM (inactive) in the assay on A549; > 10 µM (inactive) in the assay on UACC-257; > 10 µM (inactive) with Hs-578T; > 10 µM (inactive) in the assay on T47D; > 10 µM (inactive) with NCI/ADR-RES. Besides, the GI50 in the assay on SNB-19, in the assay with NCI-H522, in the assay on LOX IMVI, in the assay with EKVX, in the assay with MOLT-4 and with TK-10 was > 10 µM (inactive) each time. For the same compound, the GI50 with HT-29 is 3.13 µM (inactive).
`COc1cc2oc3cc(=O)cc4oc(-c5ccccc5)cc(c2c2c1CCC(c1ccccc1)O2)c43` (centres undefined): the GI50 in the assay with HCT-15 was 20.4 µM; in the assay with CAKI-1 it was 15.7 µM (inactive); in the assay on OVCAR-4, > 100 µM (inactive); in the assay with U-251, 43.1 µM (inactive); with OVCAR-5 it was 56 µM (inactive); with K562, 33 µM (inactive). For the same compound, the GI50 was 11.1 µM (inactive) in the assay with SR; 72.8 µM (inactive) in the assay on A549; 26.7 µM (inactive) in the assay on UACC-257; 85.9 µM (inactive) in the assay on Hs-578T; 17.7 µM (inactive) in the assay with T47D; > 100 µM (inactive) in the assay on NCI/ADR-RES. Moreover, the GI50 is 63 µM (inactive) in the assay with SNB-19; 34.8 µM (inactive) in the assay on NCI-H522; 31.9 µM (inactive) with LOX IMVI; 65.6 µM (inactive) with EKVX; 8.95 µM (inactive) with MOLT-4; 26.6 µM (inactive) in the assay with TK-10. Besides, in the assay with HT-29, the GI50 is 20.9 µM (inactive).
